# Reference: US20150190416A1, “FILAGGRIN PRODUCTION PROMOTER, THERAPEUTIC AGENT FOR DISEASES ASSOCIATED WITH REDUCTION IN PRODUCTION OF FILAGGRIN, AND METHOD FOR SCREENING FOR SAID THERAPEUTIC AGENT” (KYOTO UNIVERSITY, priority 2012, published 2015)
# Legend:
# [1] = system: FLG monomer; experiment: FLG monomer-producing effect in atopic dermatitis mouse model (NC/Nga), Western blotting (Example 15); format: in vivo; settings: oral 0.75 mg every other day, 2 weeks, ear epidermis
# Protocol: Experiments were conducted with raising 6- to 10-week-old atopic dermatitis-developing NC/Nga mice with mites (Japan SLC, Inc.) under a normal environment. Namely, 500 μl of a solution obtained by dissolving Compound 1 at 1.5 mg/ml in a methyl cellulose solution (0.5 W/V % Methyl Cellulose 400 Solution, Wako, 133-14255) were orally administered to an NC/Nga mouse developing dermatitis majorly in the ear auricles and the head (0.75 mg of Compound 1 was administered to the mouse per time) every other day. As a control, 500 μl of the methyl cellulose solution was orally administered every other day. The experiments were conducted by using five mice in each of a Compound 1-administered group and a control group.
# 2 weeks after the beginning of administration, ears of each mouse were cut under anesthesia, the skin of the cut ear was peeled off by pinching cartilage, and the skin on the dermal side was soaked in PBS containing 20 mM EDTA at 37° C. for 30 minutes. Next, the epidermis of the ear was peeled off and […] of Lysis buffer (0.1 M Tris-HCl (pH 9.0), 6 M Urea, 1% 2-mercapto-ethanol, 1% SDS, 1 mM EDTA, and Protease inhibitor cocktail) were added to the epidermis. The epidermis was homogenized with an electrically powered pestle, and the homogenized cells were centrifuged at 15,000 rpm at 4° C. for 20 minutes. […]
# [2] = system: GPR22 mRNA; experiment: GPR22 mRNA expression in NHEK cells, real-time PCR (Example 4); format: cell-based, human; settings: Compound 1 1 μM, 3 days
# Protocol: In this example, the expression-inducing effects of Compound 1 on GPR142 mRNA and GPR22 mRNA in NHEK cells were confirmed.
# 1) 5×10^4 cells/well of NHEK cells (Invitrogen) were plated on a 24-well plate. Then, 500 μl of a culture medium containing a medium for proliferating normal human epidermal keratinocytes (HuMedia-KG2, KURABO INDUSTRIES LTD.) supplemented with hEGF (0.1 ng/ml), insulin (10 μg/ml), hydrocortisone (0.5 μg/ml), gentamycin (50 μg/ml), amphotericin B (50 ng/ml), and bovine brain pituitary extract (BPE) (0.4%, v/v) were added to the plate, and the cells were cultured under the conditions of 37° C. and 5% CO2.
# 2) After culture under the conditions of the step 1) for 1 day, the medium was exchanged for the culture medium of the step 1) to which a DMSO solution of Compound 1 was added at 1 μM per well every day and the culture was conducted for 3 days. […]
# 3) An extraction reagent (TRIzol™, Invitrogen) was used, and according to the manufacturer's protocol, total RNA was extracted from each of cells treated with the medicament. […] Next, real-time PCR was conducted by using the following primers and SYBR™ Premix Ex Taq (Takara) with a CFX96 real-time PCR instrument according to the manufacturer's protocol, and the amounts of GPR142mRNA and GPR22mRNA expression were measured. […]
# [3] = system: GPR22; experiment: G protein-coupled receptor (GPCR) array in NHEK cells, GPR22 (Example 3); format: cell-based, human; settings: Compound 1 1 μM, 3 days
# Protocol: In this example, the expression-increasing effect of Compound 1 on a GPCR in NHEK cells was confirmed by using a GPCR array.
# 1) 5×10^4 cells/well of NHEK cells (Invitrogen) were plated on a 24-well plate, and then 500 μl of a culture medium containing a medium for proliferating normal human epidermal keratinocytes (HuMedia-KG2, KURABO INDUSTRIES LTD.) supplemented with hEGF (0.1 ng/ml), insulin (10 μg/ml), hydrocortisone (0.5 μg/ml), gentamycin (50 μg/ml), amphotericin B (50 ng/ml), and bovine brain pituitary extract (BPE) (0.4%, v/v) were added to the plate, and the cells were cultured under the conditions of 37° C. and 5% CO2 for from 3 to 4 days until the 80 to 85% confluent state was achieved.
# 2) Next, a DMSO solution of Compound 1 was added to the medium at 1 μM per well, and culture was further conducted for 3 days without changing the medium. In addition, regarding the system to which only CaCl2 (1.5 mM in terms of Ca) as Ca was added and the system to which both Compound 1 and CaCl2 (1.5 mM in terms of Ca) as Ca were added, the culture was conducted in a similar manner for 3 days. As a control example, a solvent only (vehicle) was added.
# 3) An extraction reagent (TRIzol™, Invitrogen) was used, and according to the manufacturer's protocol, total RNA was extracted from each of cells treated in the step 2). […]
structure (smiles),measurement,setting,value
"CCc1ccc(OCc2ccccc2C(=O)Nc2ccc3nc(C)cc(N)c3c2)cc1.Cl [Compound 1, N-(4-Amino-2-methyl-6-quinolyl)-2-[(4-ethylphenoxy)methyl]benzamide hydrochloride]",production of FLG monomer (relative to GAPDH),[1],clearly promoted the production of FLG monomer
same,GPR22 mRNA expression (GAPDH ratio),[2],induced GPR22 mRNA expression
same,"GPR22 mRNA expression (GPCR array), in words",[3]; Ca 1.5 mM,expression was induced
same,GPR22: cycle number (ΔCt value) to 18S ribosomal RNA,"[3]; CaCl2 1.5 mM in terms of Ca, control 29.2",6.7
